Measurements reported in PMC5078989, “Targeted inhibition of the COP9 signalosome for treatment of cancer” (Nature Communications, 2016).

Tested on: panel of cancer cell lines
Experiment: Cell viability (CellTiter-Glo) dose-response across cancer cell line panel;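 note: after 72 h compound incubation with CellTiter-Glo ATP readout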
Type: cell-based, human
Conditions: Homo sapiens
Excerpt: Next, we explored the effect of CSN5 inhibition on the viability of cancer cells. To obtain a comprehensive picture, we generated dose–response curves with a CSN5 inhibitor across more than 500 cancer cell lines in a previously described standardized setting[47] (Supplementary Data 1).
A standardized CellTiter-Glo Assay (Promega #G7570) based on the quantification of ATP was applied according to the manufacturer's protocol to measure the amount of viable cells in culture. In brief, cells were seeded into 384-well plates at optimal density for each cell line. After 4 h, compounds were added at different concentrations in growth medium and incubated for another 72 h in a humidifying chamber at 37 °C and 5% CO2. […] EC50 values were calculated from the plot of percentage of inhibition versus inhibitor concentration using the nonlinear regression analysis software Origin 7.5SR6 (OriginLab Corp.).

`CC(C)C[C@H](NC(=O)[C@H](Cc1ccccc1)NC(=O)c1cnccn1)B(O)O` [Bortezomib] gave an EC50 (NALM-6, NALM-6) of 0.00808 µM, an EC50 (NB1, NB-1) of 0.00756 µM and an EC50 (NB-4, NB-4) of 0.00438 µM. For the same compound, the EC50 (NCI-H28, NCI-H28) was 0.0101 µM, the EC50 (NCI-H82, cell line NCI-H82) was 0.00125 µM and the EC50 (NCI-H146, cell line NCI-H146) was 0.0109 µM. For the same compound, the EC50 (NCI-H196, NCI-H196) was 0.027 µM, the EC50 (NCI-H226, cell line NCI-H226) was 0.0149 µM and the EC50 (NCI-H358, NCI-H358) was 0.0103 µM. For the same compound, the EC50 (NCI-H441, NCI-H441) was 0.0155 µM, the EC50 (NCI-H460, cell line NCI-H460) was 0.0852 µM and the EC50 (NCI-H520, cell line NCI-H520) was 0.00791 µM. It also gave an EC50 (NCI-H524, NCI-H524) of 0.00772 µM, an EC50 (NCI-H596, NCI-H596) of 0.021 µM and an EC50 (NCI-H647, cell line NCI-H647) of 0.0137 µM. It also gave an EC50 (NCI-H650, NCI-H650) of 0.118 µM, an EC50 (NCI-H661, cell line NCI-H661) of 0.0173 µM and an EC50 (NCI-H716, NCI-H716) of 0.00509 µM. The EC50 (NCI-H727, NCI-H727) was 0.0274 µM, the EC50 (NCI-H810, cell line NCI-H810) was 0.0118 µM and the EC50 (NCI-H838, NCI-H838) was 0.0285 µM. For the same compound, the EC50 (NCI-H841, NCI-H841) was 0.018 µM, the EC50 (NCI-H1048, NCI-H1048) was 0.0186 µM and the EC50 (NCI-H1092, NCI-H1092) was 0.019 µM. It also gave an EC50 (NCI-H1184) of 0.00724 µM, an EC50 (NCI-H1299, cell line NCI-H1299) of 0.0185 µM and an EC50 (NCI-H1341) of 0.011 µM. The EC50 (NCI-H1355, cell line NCI-H1355) was 0.0278 µM, the EC50 (NCI-H1437, cell line NCI-H1437) was 0.0195 µM and the EC50 (NCI-H1563, cell line NCI-H1563) was 0.0578 µM. The EC50 (NCI-H1568, cell line NCI-H1568) was 0.0122 µM, the EC50 (NCI-H1573, NCI-H1573) was 0.0382 µM and the EC50 (NCI-H1581, cell line NCI-H1581) was 0.0129 µM. For the same compound, the EC50 (NCI-H1623, NCI-H1623) was 0.014 µM, the EC50 (NCI-H1650, cell line NCI-H1650) was 0.00329 µM and the EC50 (NCI-H1651, NCI-H1651) was 0.00883 µM. It also gave an EC50 (NCI-H1666, cell line NCI-H1666) of 0.00768 µM, an EC50 (NCI-H1693, NCI-H1693) of 0.00561 µM and an EC50 (NCI-H1703, cell line NCI-H1703) of 0.00911 µM. The EC50 (NCI-H1734, NCI-H1734) was 0.00907 µM, the EC50 (NCI-H1781, cell line NCI-H1781) was 0.0129 µM and the EC50 (NCI-H1792, cell line NCI-H1792) was 0.0518 µM. It also gave an EC50 (NCI-H1793, cell line NCI-H1793) of 0.0553 µM, an EC50 (NCI-H1869) of 0.00335 µM and an EC50 (NCI-H1944, NCI-H1944) of 0.0552 µM. It also gave an EC50 (NCI-H1975, cell line NCI-H1975) of 0.00964 µM, an EC50 (NCI-H2023, NCI-H2023) of 0.0241 µM and an EC50 (NCI-H2073, NCI-H2073) of 0.0265 µM. It also gave an EC50 (NCI-H2087, cell line NCI-H2087) of 0.00721 µM, an EC50 (NCI-H2122, cell line NCI-H2122) of 0.0225 µM and an EC50 (NCI-H2126, cell line NCI-H2126) of 0.0244 µM. For the same compound, the EC50 (NCI-H2170, cell line NCI-H2170) was 0.0156 µM, the EC50 (NCI-H2172, NCI-H2172) was 0.0515 µM and the EC50 (NCI-H2405, NCI-H2405) was 0.0168 µM. For the same compound, the EC50 (NCI-H2452, NCI-H2452) was 0.0217 µM, the EC50 (NCI-H3255, NCI-H3255) was 0.00864 µM and the EC50 (NOMO-1, NOMO-1) was 0.0119 µM. The EC50 (NUGC-3, cell line NUGC-3) was 0.0119 µM, the EC50 (NUGC-4, cell line NUGC-4) was 0.0162 µM and the EC50 (OAW-42, OAW42) was 0.0144 µM. For the same compound, the EC50 (OC 316) was 0.00898 µM, the EC50 (OC-314, OC 314) was 0.0086 µM and the EC50 (OCI-AML2, OCI-AML2) was 0.00861 µM. It also gave an EC50 (OCI-AML-3, OCI-AML3) of 0.00545 µM, an EC50 (OCI-AML-5, OCI-AML5) of 0.00917 µM and an EC50 (OCI-LY19, OCI-LY-19) of 0.0112 µM. It also gave an EC50 (OCI-Ly3, OCI-LY3) of 0.00553 µM, an EC50 (OCI-Ly10, OCI-LY10) of 0.00553 µM and an EC50 (OCI-M1, OCI-M1) of 0.00241 µM. The EC50 (OE19, cell line OE19) was 0.0134 µM, the EC50 (OE33, cell line OE33) was 0.0201 µM and the EC50 (ONCO-DG-1, ONCO-DG-1) was 0.0116 µM. It also gave an EC50 (OS-RC-2, OS-RC-2) of 0.0187 µM, an EC50 (OUMS-23, OUMS-23) of 0.0141 µM and an EC50 (OV7, OV7) of 0.00826 µM. It also gave an EC50 (OV56, cell line OV56) of 0.0136 µM, an EC50 (OV-90, OV-90) of 0.015 µM and an EC50 (OVCAR-4, cell line OVCAR-4) of 0.012 µM. It also gave an EC50 (OVCAR-8, cell line OVCAR-8) of 0.0193 µM, an EC50 (OVISE) of 0.00983 µM and an EC50 (OVSAHO) of 0.00915 µM. It also gave an EC50 (P3HR-1, P3HR-1) of 0.00829 µM, an EC50 (P12-Ichikawa) of 0.00182 µM and an EC50 (P31-FUJ, P31/FUJ) of 0.00593 µM. It also gave an EC50 (PANC-1, cell line PANC-1) of 0.00876 µM, an EC50 (PANC-03-27, cell line Panc 03.27) of 0.0106 µM and an EC50 (PC-14, cell line PC-14) of 0.0152 µM. It also gave an EC50 (PE/CA-PJ41 (clone D2)) of 0.00974 µM, an EC50 (PEER) of 0.0117 µM and an EC50 (PF-382, PF-382) of 0.00273 µM. It also gave an EC50 (PL-21, PL-21) of 0.0117 µM, an EC50 (PLC-PRF-5, PLC/PRF/5) of 0.00753 µM and an EC50 (PSN1, cell line PSN1) of 0.0104 µM. For the same compound, the EC50 (PaTu 8988s, PA-TU-8988S) was 0.0137 µM, the EC50 (Panc 02.03, cell line Panc 02.03) was 0.011 µM and the EC50 (Panc 04.03, cell line Panc 04.03) was 0.0226 µM. The EC50 (Panc1005, cell line Panc 10.05) was 0.00521 µM, the EC50 (RCC10RGB) was 0.0051 µM and the EC50 (RCH-ACV) was 0.0021 µM. It also gave an EC50 (RD) of 0.00769 µM, an EC50 (REH) of 0.00469 µM and an EC50 (RKN) of 0.0164 µM. For the same compound, the EC50 (RMUG-S) was 0.0675 µM, the EC50 (RPMI 8402, RPMI-8402) was 0.00589 µM and the EC50 (RPMI-7951, cell line RPMI-7951) was 0.0101 µM. The EC50 (RPMI-8226, cell line RPMI 8226) was 0.00333 µM, the EC50 (RS4-11, cell line RS4;11) was 0.0017 µM and the EC50 (RT-112, RT-112) was 0.0052 µM. For the same compound, the EC50 (RVH-421, RVH-421) was 0.00858 µM, the EC50 (Raji, cell line Raji) was 0.0107 µM and the EC50 (Rec1, cell line REC-1) was 0.00953 µM. The EC50 (Rh18, cell line RH-18) was 0.0313 µM, the EC50 (Rh41, cell line RH-41) was 0.00735 µM and the EC50 (Ri-1, RI-1) was 0.0049 µM. The EC50 (SCaBER, cell line SCaBER) was 0.0143 µM, the EC50 (SEM) was 0.00239 µM and the EC50 (SET-2, cell line Set-2) was 0.0104 µM. For the same compound, the EC50 (SF-126, SF126) was 0.0131 µM, the EC50 (SF-295, cell line SF-295) was 0.0118 µM and the EC50 (SH-4, SH-4) was 0.00459 µM. It also gave an EC50 (SH-10-TC, cell line SH-10-TC) of 0.0161 µM, an EC50 (SHP77, SHP-77) of 0.0121 µM and an EC50 (SIG-M5, SIG-M5) of 0.00514 µM. For the same compound, the EC50 (SJRH30, cell line SJRH30) was 0.0165 µM, the EC50 (SJSA-1, cell line SJSA-1) was 0.0266 µM and the EC50 (SK-BR-3, cell line SK-BR-3) was 0.00643 µM. It also gave an EC50 (SK-CO-1, SK-CO-1) of 0.0058 µM, an EC50 (SK-ES1, cell line SK-ES-1) of 0.00979 µM and an EC50 (SK-LMS-1, SK-LMS-1) of 0.00832 µM. It also gave an EC50 (SK-LU-1, SK-LU-1) of 0.00951 µM, an EC50 (SK-MEL3, cell line SK-MEL-3) of 0.00895 µM and an EC50 (SK-MEL-1, SK-MEL-1) of 0.0187 µM. For the same compound, the EC50 (SK-MEL-2, cell line SK-MEL-2) was 0.0104 µM, the EC50 (SK-MEL-5, cell line SK-MEL-5) was 0.00881 µM and the EC50 (SK-MEL-24, SK-MEL-24) was 0.0197 µM. It also gave an EC50 (SK-MEL-30, cell line SK-MEL-30) of 0.0107 µM, an EC50 (SK-MES-1, cell line SK-MES-1) of 0.0158 µM and an EC50 (SK-N-AS, cell line SK-N-AS) of 0.00725 µM. It also gave an EC50 (SK-N-DZ) of 0.00889 µM, an EC50 (SK-N-FI, cell line SK-N-FI) of 0.0115 µM and an EC50 (SK-N-SH) of 0.0072 µM. It also gave an EC50 (SK-OV-3, cell line SK-OV-3) of 0.0268 µM, an EC50 (SK-UT-1, SK-UT-1) of 0.00852 µM and an EC50 (SKM-1, SKM-1) of 0.0037 µM. The EC50 (SKNBE2, SK-N-BE(2)) was 0.00865 µM, the EC50 (SNG-M) was 0.00704 µM and the EC50 (SNU1, SNU-1) was 0.017 µM. It also gave an EC50 (SNU878, SNU-878) of 0.0229 µM, an EC50 (SNU-16, cell line SNU-16) of 0.00579 µM and an EC50 (SNU-119) of 0.0194 µM. It also gave an EC50 (SNU-216, SNU-216) of 0.015 µM, an EC50 (SNU-449, SNU-449) of 0.0299 µM and an EC50 (SNU-475, SNU-475) of 0.0247 µM. It also gave an EC50 (SNU-626) of 0.0151 µM, an EC50 (SNU-738) of 0.0327 µM and an EC50 (SNU-1079) of 0.00889 µM. For the same compound, the EC50 (SNU-C1, SNU-C1) was 0.00382 µM and the EC50 (SNU-C5) was 0.0167 µM.
